Test results as given in US20080114007A1 (priority 2006, published 2008).

The compounds below were run against CSF-1R (Homo sapiens, UniProt P07333) (assay: Peptide (non-phosphorylated) assay, fluorescence polarization competition immunoassay). Conditions: 0.7 nM CSF-1R, 308 μM SYEGNSYTFIDPTQ peptide, 1 mM ATP, 80 min; mean of at least three determinations; read-out: c-fms Peptide IC50.
Chain of CSF-1R (P07333 20-972): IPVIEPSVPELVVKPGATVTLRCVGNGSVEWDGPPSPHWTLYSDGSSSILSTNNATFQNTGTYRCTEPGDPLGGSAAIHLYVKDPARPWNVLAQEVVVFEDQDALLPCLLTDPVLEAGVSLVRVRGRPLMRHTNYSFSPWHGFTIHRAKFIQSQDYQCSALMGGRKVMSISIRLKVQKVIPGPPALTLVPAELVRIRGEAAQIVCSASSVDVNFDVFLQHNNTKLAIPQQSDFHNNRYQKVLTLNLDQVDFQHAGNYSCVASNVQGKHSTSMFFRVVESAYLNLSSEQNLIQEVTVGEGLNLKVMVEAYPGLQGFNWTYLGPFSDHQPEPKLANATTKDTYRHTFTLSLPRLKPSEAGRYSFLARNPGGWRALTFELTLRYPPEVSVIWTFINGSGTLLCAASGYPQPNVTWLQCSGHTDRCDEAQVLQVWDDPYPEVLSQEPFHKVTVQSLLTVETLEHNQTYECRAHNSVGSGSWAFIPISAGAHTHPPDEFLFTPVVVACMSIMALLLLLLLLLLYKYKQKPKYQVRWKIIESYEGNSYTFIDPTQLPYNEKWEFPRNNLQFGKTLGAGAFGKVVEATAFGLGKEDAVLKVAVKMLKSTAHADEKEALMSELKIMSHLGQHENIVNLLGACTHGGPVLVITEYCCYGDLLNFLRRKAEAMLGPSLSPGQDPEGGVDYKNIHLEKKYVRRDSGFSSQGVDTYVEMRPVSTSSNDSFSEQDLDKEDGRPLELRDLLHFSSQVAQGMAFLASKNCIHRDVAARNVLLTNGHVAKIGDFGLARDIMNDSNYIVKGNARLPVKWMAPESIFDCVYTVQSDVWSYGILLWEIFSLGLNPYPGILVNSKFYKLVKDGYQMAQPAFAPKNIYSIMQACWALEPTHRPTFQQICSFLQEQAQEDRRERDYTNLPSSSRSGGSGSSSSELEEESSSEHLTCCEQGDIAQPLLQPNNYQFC
Type: biochemical
Description: The kinase reaction was initiated by adding 1 μL of 10 mM ATP in assay buffer. […] Positive and negative control wells were included on each plate, where 4% DMSO in assay buffer was substituted for the compound; in addition, positive control wells received 1.2 μL of 50 mM EDTA before the start of the reaction.
The plates were covered and incubated at room temperature for 80 min. Reactions were stopped by addition of 1.2 μL of 50 mM EDTA. Each well then received 10 μL of a 1:1:3 mixture of 10× anti-phosphotyrosine antibody, 10×PTK green tracer, and FP dilution buffer, respectively (Cat. # P2837, Invitrogen, Carlsbad, Calif.). The plates were covered, incubated for 30 min at room temperature, and the fluorescence polarization was read on an Analyst plate reader (Molecular Devices).
`CC(C)ONC(=O)c1cn(-c2ccc3c(c2)CCC3)c2nc(Nc3ccc(CCN4CCCC4)cc3)ncc2c1=O` [Cpd 133, 8-indan-5-yl-5-oxo-2-[4-(2-pyrrolidin-1-yl-ethyl)-phenylamino]-5,8-dihydro-pyrido[2,3-d]pyrimidine-6-carboxylic acid isopropoxy-amide] showed an IC50 of 1.2 nM.
For `CONC(=O)c1cn(-c2ccc3c(c2)CCC3)c2nc(Nc3ccc4[nH]cnc4c3)ncc2c1=O` [Cpd 302, 2-(1H-benzoimidazol-5-ylamino)-8-indan-5-yl-5-oxo-5,8-dihydro-pyrido[2,3-d]pyrimidine-6-carboxylic acid methoxy-amide], the IC50 was 319 nM.
`CONC(=O)c1cn(-c2ccc3c(c2)CCC3)c2nc(Nc3ccc(CCN4CCCC4=O)cc3)ncc2c1=O` [Cpd 134, 8-indan-5-yl-5-oxo-2-{4-[2-(2-oxo-pyrrolidin-1-yl)-ethyl]-phenylamino}-5,8-dihydro-pyrido[2,3-d]pyrimidine-6-carboxylic acid methoxy-amide] gave an IC50 of 6.8 nM.
In the case of `CCc1cccc(-n2cc(C(=O)NOC)c(=O)c3cnc(Nc4ccc(C5CCN(C)CC5)cc4)nc32)c1` [Cpd 212, 8-(3-ethyl-phenyl)-2-[4-(1-methyl-piperidin-4-yl)-phenylamino]-5-oxo-5,8-dihydro-pyrido[2,3-d]pyrimidine-6-carboxylic acid methoxy-amide], the IC50 is reported as 0.36 nM.
`CCOC(=O)CN1CCC(c2ccc(Nc3ncc4c(=O)c(C(=O)NOC)cn(-c5ccc6c(c5)CCC6)c4n3)cc2)CC1` [Cpd 218, {4-[4-(8-indan-5-yl-6-methoxycarbamoyl-5-oxo-5,8-dihydro-pyrido[2,3-d]pyrimidin-2-ylamino)-phenyl]-piperidin-1-yl}-acetic acid ethyl ester] was tested, and the IC50 was 1.2 nM.
Work on `CCONC(=O)c1cn(C2CCCC2)c2nc(Nc3ccc(CCN4CCN(C)CC4)cc3)ncc2c1=O` [Cpd 49, 8-cyclopentyl-2-{4-[2-(4-methyl-piperazin-1-yl)-ethyl]-phenylamino}-5-oxo-5,8-dihydro-pyrido[2,3-d]pyrimidine-6-carboxylic acid ethoxy-amide] yielded an IC50 of 1.7 nM.
`CCc1ccc(-n2cc(C(=O)NOC(C)C)c(=O)c3cnc(Nc4ccc(C5CCN(CC)CC5)cc4)nc32)cc1` [Cpd 182, 8-(4-ethyl-phenyl)-2-[4-(1-ethyl-piperidin-4-yl)-phenylamino]-5-oxo-5,8-dihydro-pyrido[2,3-d]pyrimidine-6-carboxylic acid isopropoxy-amide] was tested, and the IC50 was 0.7 nM.
`CONC(=O)c1cn(-c2ccc3c(c2)CCC3)c2nc(Nc3ccc(C4CCN(C(C)=O)CC4)cc3)ncc2c1=O` [Cpd 69, 2-[4-(1-acetyl-piperidin-4-yl)-phenylamino]-8-indan-5-yl-5-oxo-5,8-dihydro-pyrido[2,3-d]pyrimidine-6-carboxylic acid methoxy-amide] showed an IC50 of 1.2 nM.
Compound `CONC(=O)c1cn(-c2ccc3c(c2)CCC3)c2nc(Nc3cccc(S(=O)(=O)N(C)C)c3)ncc2c1=O` [Cpd 129, 2-(3-dimethylsulfamoyl-phenylamino)-8-indan-5-yl-5-oxo-5,8-dihydro-pyrido[2,3-d]pyrimidine-6-carboxylic acid methoxy-amide] has an IC50 of 2.3 nM.
`CCONC(=O)c1cn(C2CCCCC2)c2nc(Nc3ccc(CCN4CCOCC4)cc3)ncc2c1=O` [Cpd 21, 8-cyclohexyl-2-[4-(2-morpholin-4-yl-ethyl)-phenylamino]-5-oxo-5,8-dihydro-pyrido[2,3-d]pyrimidine-6-carboxylic acid ethoxy-amide] showed an IC50 of 1 nM.
Work on `CONC(=O)c1cn(-c2ccc3c(c2)CCC3)c2nc(Nc3ccc(C4CCN(CC(=O)O)CC4)cc3)ncc2c1=O` [Cpd 219, {4-[4-(8-indan-5-yl-6-methoxycarbamoyl-5-oxo-5,8-dihydro-pyrido[2,3-d]pyrimidin-2-ylamino)-phenyl]-piperidin-1-yl}-acetic acid] yielded an IC50 of 2.2 nM.
With `CCONC(=O)c1cn(-c2ccc3c(c2)CCC3)c2nc(Nc3ccc(S(=O)(=O)N(C)C)cc3)ncc2c1=O` [Cpd 136, 2-(4-dimethylsulfamoyl-phenylamino)-8-indan-5-yl-5-oxo-5,8-dihydro-pyrido[2,3-d]pyrimidine-6-carboxylic acid ethoxy-amide] the IC50 was 4.2 nM.
Compound `CCc1ccc(-n2cc(C(=O)NOC)c(=O)c3cnc(Nc4ccc(CC(=O)NN(C)C)cc4)nc32)cc1` [Cpd 105, 2-[4-(N′,N′-dimethyl-hydrazinocarbonylmethyl)-phenylamino]-8-(4-ethyl-phenyl)-5-oxo-5,8-dihydro-pyrido[2,3-d]pyrimidine-6-carboxylic acid methoxy-amide] has an IC50 of 1.4 nM.
Work on `CCc1ccc(-n2cc(C(=O)NOC)c(=O)c3cnc(Nc4cccc(OC5CCCNC5)c4)nc32)cc1` (stereo not drawn) [Cpd 248, 8-(4-ethyl-phenyl)-5-oxo-2-[3-(piperidin-3-yloxy)-phenylamino]-5,8-dihydro-pyrido[2,3-d]pyrimidine-6-carboxylic acid methoxy-amide] yielded an IC50 of 0.43 nM.
In the case of `CONC(=O)c1cn(-c2ccc3c(c2)CCC3)c2nc(Nc3ccc(CCO)cc3)ncc2c1=O` [Cpd 79, 2-[4-(2-hydroxy-ethyl)-phenylamino]-8-indan-5-yl-5-oxo-5,8-dihydro-pyrido[2,3-d]pyrimidine-6-carboxylic acid methoxy-amide], the IC50 is reported as 0.87 nM.
`CONC(=O)c1cn(-c2ccc3c(c2)CCC3)c2nc(Nc3cccc(CCN4CCCC4)c3)ncc2c1=O` [Cpd 194, 8-indan-5-yl-5-oxo-2-[3-(2-pyrrolidin-1-yl-ethyl)-phenylamino]-5,8-dihydro-pyrido[2,3-d]pyrimidine-6-carboxylic acid methoxy-amide] gave an IC50 of 0.65 nM.
In the case of `CONC(=O)c1cn(-c2ccc3c(c2)CCC3)c2nc(Nc3ccc(CCN4CCN(CC(=O)O)CC4)cc3)ncc2c1=O` [Cpd 147, (4-{2-[4-(8-indan-5-yl-6-methoxycarbamoyl-5-oxo-5,8-dihydro-pyrido[2,3-d]pyrimidin-2-ylamino)-phenyl]-ethyl}-piperazin-1-yl)-acetic acid], the IC50 is reported as 0.94 nM.
With `CONC(=O)c1cn(-c2ccc3c(c2)CCC3)c2nc(Nc3ccc(CCN4CCN(CC(F)(F)F)CC4)cc3)ncc2c1=O` [Cpd 149, 8-indan-5-yl-5-oxo-2-(4-{2-[4-(2,2,2-trifluoro-ethyl)-piperazin-1-yl]-ethyl}-phenylamino)-5,8-dihydro-pyrido[2,3-d]pyrimidine-6-carboxylic acid methoxy-amide] the IC50 was 2.6 nM.
`COCCOc1ccc(Nc2ncc3c(=O)c(C(=O)NOC)cn(-c4ccc5c(c4)CCC5)c3n2)cc1OCCOC` [Cpd 314, 2-[3,4-bis-(2-methoxy-ethoxy)-phenylamino]-8-indan-5-yl-5-oxo-5,8-dihydro-pyrido[2,3-d]pyrimidine-6-carboxylic acid methoxy-amide] was tested, and the IC50 was 0.5 nM.
With `CCONC(=O)c1cn(C2CCCCC2)c2nc(Nc3ccc(N4CC(C)NC(C)C4)cc3)ncc2c1=O` (stereo not drawn) [Cpd 25, 8-cyclohexyl-2-[4-(3,5-dimethyl-piperazin-1-yl)-phenylamino]-5-oxo-5,8-dihydro-pyrido[2,3-d]pyrimidine-6-carboxylic acid ethoxy-amide] the IC50 was 2.1 nM.
`CONC(=O)c1cn(-c2ccc3c(c2)CCC3)c2nc(Nc3ccc(CCNS(C)(=O)=O)cc3)ncc2c1=O` [Cpd 82, 8-indan-5-yl-2-[4-(2-methanesulfonylamino-ethyl)-phenylamino]-5-oxo-5,8-dihydro-pyrido[2,3-d]pyrimidine-6-carboxylic acid methoxy-amide] gave an IC50 of 3.6 nM.
